# Publication PMC11137104, “Small molecule induced STING degradation facilitated by the HECT ligase HERC4” (Nature Communications, 2024)
# Assays:
# Experiment in all cases: NanoBiT complementation of STING and HERC4 in HEK293T; also co-immunoprecipitation
# Assay type in all cases: cell-based
# [1] = target: T1, STING^141-341-LgBiT : SmBiT-HERC4 (Homo sapiens, UniProt Q5GLZ8+Q86WV6); settings: compound-induced STING-HERC4 association; dose-response, 16 h; binding site and direct binary binding not determined
# T1 construct: gene STING1; STING cytosolic domain with connector helix (141-341), C-terminal LgBiT; full-length HERC4, N-terminal SmBiT; transient in HEK293T
# T1 sequence (Q86WV6 141-341): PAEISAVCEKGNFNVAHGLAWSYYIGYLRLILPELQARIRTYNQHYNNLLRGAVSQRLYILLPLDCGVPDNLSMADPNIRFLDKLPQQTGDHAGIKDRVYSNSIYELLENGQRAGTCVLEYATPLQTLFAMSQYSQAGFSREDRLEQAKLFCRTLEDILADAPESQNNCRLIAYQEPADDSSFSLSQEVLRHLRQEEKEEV
# T1 sequence (Q5GLZ8 whole entry, the tested form may be a part): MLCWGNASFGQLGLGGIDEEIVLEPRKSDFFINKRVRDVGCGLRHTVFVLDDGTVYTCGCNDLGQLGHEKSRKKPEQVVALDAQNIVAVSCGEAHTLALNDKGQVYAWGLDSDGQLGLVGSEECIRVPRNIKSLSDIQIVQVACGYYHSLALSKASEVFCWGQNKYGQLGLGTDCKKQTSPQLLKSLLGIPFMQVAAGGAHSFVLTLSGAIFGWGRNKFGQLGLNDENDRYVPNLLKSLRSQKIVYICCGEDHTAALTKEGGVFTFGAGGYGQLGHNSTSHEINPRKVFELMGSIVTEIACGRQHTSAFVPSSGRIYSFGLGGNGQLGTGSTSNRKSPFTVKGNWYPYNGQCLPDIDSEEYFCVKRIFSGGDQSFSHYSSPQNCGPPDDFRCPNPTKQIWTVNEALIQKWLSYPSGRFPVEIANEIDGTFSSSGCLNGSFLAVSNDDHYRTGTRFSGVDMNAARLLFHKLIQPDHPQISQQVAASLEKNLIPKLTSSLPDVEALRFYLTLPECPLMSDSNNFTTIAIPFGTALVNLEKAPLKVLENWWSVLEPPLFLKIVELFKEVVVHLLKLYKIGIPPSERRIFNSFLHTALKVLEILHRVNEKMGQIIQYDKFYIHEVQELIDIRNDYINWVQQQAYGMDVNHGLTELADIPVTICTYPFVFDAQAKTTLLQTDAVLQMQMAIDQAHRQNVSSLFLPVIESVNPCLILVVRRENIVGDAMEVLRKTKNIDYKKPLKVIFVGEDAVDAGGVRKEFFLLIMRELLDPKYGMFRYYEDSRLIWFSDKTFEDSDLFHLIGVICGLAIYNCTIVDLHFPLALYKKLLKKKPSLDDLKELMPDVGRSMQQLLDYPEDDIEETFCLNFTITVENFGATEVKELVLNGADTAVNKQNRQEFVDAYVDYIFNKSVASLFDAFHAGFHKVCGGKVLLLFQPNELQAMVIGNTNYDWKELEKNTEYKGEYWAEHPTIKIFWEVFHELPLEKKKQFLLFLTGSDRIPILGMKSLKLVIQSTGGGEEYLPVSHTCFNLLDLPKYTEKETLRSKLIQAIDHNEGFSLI
# [2] = target: T2, STING^141-341-LgBiT : SmBiT-HERC4 (Homo sapiens, UniProt Q5GLZ8+Q86WV6, Q86WV6:K150R); settings: compound-induced STING-HERC4 association; dose-response, 16 h; binding site and direct binary binding not determined
# T2 construct: gene STING1; STING cytosolic domain with connector helix (141-341), C-terminal LgBiT; full-length HERC4, N-terminal SmBiT; transient in HEK293T
# T2 sequence (Q86WV6 141-341 K150R): as the sequence (Q86WV6 141-341) above, with K10R counted along it
# T2 sequence (Q5GLZ8 whole entry, the tested form may be a part): as the sequence (Q5GLZ8 whole entry, the tested form may be a part) above
# [3] = target: T3, STING^155-341-LgBiT : SmBiT-HERC4 (Homo sapiens, UniProt Q5GLZ8+Q86WV6); settings: compound-induced STING-HERC4 association; 16 h; binding site and direct binary binding not determined
# T3 construct: gene STING1; full-length HERC4, N-terminal SmBiT; transient in HEK293T
# T3 sequence (Q86WV6 155-341): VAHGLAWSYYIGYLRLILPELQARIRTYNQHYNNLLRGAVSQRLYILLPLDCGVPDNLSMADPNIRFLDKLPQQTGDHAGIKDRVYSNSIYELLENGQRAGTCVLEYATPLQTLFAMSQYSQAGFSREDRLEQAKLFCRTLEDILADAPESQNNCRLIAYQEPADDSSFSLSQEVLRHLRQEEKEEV
# T3 sequence (Q5GLZ8 whole entry): as the sequence (Q5GLZ8 whole entry, the tested form may be a part) above
smiles,measurement,setting,value
"O=S(=O)(Nc1ccc(-c2cccnc2)c2cccnc12)c1ccc(C(F)(F)F)cc1 [AK59, AK59-51TB]",NanoBiT complementation of STING and HERC4 in HEK293T; also co-immunoprecipitati,[1],"only AK59, but not the inactive analog QK50, is capable of inducing an interaction"
same,NanoBiT complementation of STING and HERC4 in HEK293T; also co-immunoprecipitati,[2],all constructs showed a luminescence signal indicating a direct interaction with HERC4 upon AK59
same,NanoBiT complementation of STING and HERC4 in HEK293T; also co-immunoprecipitati,[3],all constructs showed a luminescence signal indicating a direct interaction with HERC4 upon AK59
